The record followed here is patent US12617756B2 (ABIVAX, priority 2019, dated 2026).

The structures appear in SMILES notation.

The assay deals with RSV A2. The assay can be described thus: Screening for RSV inhibition using Viral ToxGlo assay (cytopathic effect inhibition in HEp-2 cells). The class given is cell-based, Respiratory Syncytial Virus (RSV). The settings on record: human respiratory syncytial virus; RSV A2 in HEp-2 cells, MOI 0.5, 72h p.i., cytopathic effect inhibition relative to virus control, Viral ToxGlo luminescence. The essentials: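 HEp-2 cells in 2% FBS medium infected with RSV A2 right after compound addition (max 1% DMSO), uninfected wells used for cytotoxicity. After 72 h p.i. at 37 °C/5% CO2, cell viability read by Viral ToxGlo luminescence as measure of cytopathic effect.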
Background: Protection from cytopathic effect is a common read-out in antiviral testing.
One may read the EC50 as the concentration that produces a half-maximal response. On to `O=C(N=C1NCCN1)c1ccc(Nc2cccc(C(=O)NC3CC3)c2C(F)(F)F)c(C2CC2)c1` [Compound 116, 3-cyclopropyl-4-f{[3-(cyclopropylcarbamoyl)-2-(trifluoromethyl)phenyl]amino}-N—[imidazolidin-2-ylidene]benzamide], for which the EC50 was 131 nM.

On to `O=C(N=C1NCCN1)c1ccc(Nc2cccc(C(=O)N3CCOCC3)c2Cl)c(C2CCOC2)c1` (centres unmarked) [Compound 15, 4-{[2-chloro-3-(morpholine-4-carbonyl)phenyl]amino}-N-[(2E)-imidazolidin-2-ylidene]-3-(oxolan-3-yl)benzamide], for which the EC50 turned out to be 14.9 nM.

Take `CC1(NC(=O)c2cccc(Nc3c(F)cc(C(=O)N=C4NCCN4)cc3C3CCCO3)c2)CC1` (centres unmarked) [Compound 125, 3-fluoro-N—[imidazolidin-2-ylidene]-4-({3-[(1-methylcyclopropyl)carbamoyl]phenyl}amino)-5-(oxolan-2-yl)benzamide]: the EC50 was found to be 19.1 nM.

As to `CC(C)CNC(=O)c1ccccc1Nc1ccc(C(=O)N=C2NCCN2)cc1C(C)(C)C` [Compound 56, 3-tert-butyl-N-[(2E)-imidazolidin-2-ylidene]-4-({2-[(2-methylpropyl)carbamoyl]phenyl}amino)benzamide], the EC50 came out at 174 nM.

In the case of `C=C(C)c1cc(C(=O)N=C2NCCN2)ccc1Nc1cccc(C(=O)NCCC(C)C)c1` [Compound 29, N-[(2E)-imidazolidin-2-ylidene]-4-({3-[(3-methylbutyl)carbamoyl]phenyl}amino)-3-(prop-1-en-2-yl)benzamide], the EC50 came out at 42.3 nM.

For `O=C(N=C1NCCN1)c1ccc(Nc2cccc(C(=O)N3CCOCC3C(F)(F)F)c2Cl)c(C2CC2)c1` (centres unmarked) [Compound 122, 4-({2-chloro-3-[3-(trifluoromethyl)morpholine-4-carbonyl]phenyl}amino)-3-cyclopropyl-N—[imidazolidin-2-ylidene]benzamide], the EC50 amounted to 7.8 nM.

For the compound `Cc1cc(C(=O)N=C2NCCN2)cc(C2CC2)c1Nc1cccc(C(=O)NC(C)C)c1` [Compound 106, 3-cyclopropyl-N-[(2Z)-imidazolidin-2-ylidene]-5-methyl-4-({3-[(propan-2-yl)carbamoyl]phenyl}amino)benzamide], the EC50 turned out to be 5.7 nM.

Consider `CC(C)(C)c1cc(C(=O)N=C2NCCN2)ccc1Nc1cccc(C(=O)NCCC2CCCCO2)c1` (centres unmarked) [Compound 35, 3-tert-butyl-N-[(2E)-imidazolidin-2-ylidene]-4-[(3-{[2-(oxan-2-yl)ethyl]carbamoyl}phenyl)amino]benzamide], for which the EC50 turned out to be 51.6 nM.

As to `CC(C)(O)c1cc(C(=O)N=C2NCCN2)ccc1Nc1cccc(C(=O)N2CCOCC2)c1Cl` [Compound 45, 4-{[2-chloro-3-(morpholine-4-carbonyl)phenyl]amino}-3-(2-hydroxypropan-2-yl)-N-(imidazolidin-2-ylidene)benzamide], the EC50 worked out at 91.5 nM.

On to `CC1(NC(=O)c2cc(F)cc(Nc3ccc(C(=O)N=C4NCCN4)cc3C3CC3)c2)CC1` [Compound 47, 3-cyclopropyl-4-({3-fluoro-5-[(1-methylcyclopropyl)carbamoyl]phenyl}amino)-N-[(2Z)-imidazolidin-2-ylidene]benzamide], for which the EC50 is 113 nM.

Take `O=C(N=C1NCCN1)c1ccc(Nc2cccc(C(=O)N3CCOCC3)c2Cl)c(C2CCCO2)c1` (centres unmarked) [Compound 97, 4-{[2-chloro-3-(morpholine-4-carbonyl)phenyl]amino}-N-[(2E)-imidazolidin-2-ylidene]-3-(oxolan-2-yl)benzamide]: the EC50 worked out at 51 nM.

On to `O=C(N=C1NCCN1)c1cc(F)c(Nc2nccc(C(=O)N3CCOCC3)c2Cl)c(C2CC2)c1` [Compound 153, 4-{[3-chloro-4-(morpholine-4-carbonyl)pyridin-2-yl]amino}-3-cyclopropyl-5-fluoro-N-[imidazolidin-2-ylidene]benzamide], for which the EC50 was found to be 31.6 nM.

In the case of `O=C(N=C1NCCN1)c1ccc(Nc2cccc(C(=O)N3CCOCC3)c2C(F)(F)F)c(C2CC2)c1` [Compound 115, 3-cyclopropyl-N-[imidazolidin-2-ylidene]-4-{[3-(morpholine-4-carbonyl)-2-(trifluoromethyl)phenyl]amino}benzamide], the EC50 was found to be 29.6 nM.

Take `CC(C)NC(=O)c1cccc(Nc2ccc(C(=O)/N=C3\NCCN3C)cc2C2CC2)c1` [Compound 36, 3-cyclopropyl-N-[(2E)-1-methylimidazolidin-2-ylidene]-4-({3-[(propan-2-yl)carbamoyl]phenyl}amino)benzamide]: the EC50 worked out at 55.4 nM.

As for `O=C(N=C1NCCN1)c1ccc(Nc2cccc(C(=O)N3CCS(=O)(=O)CC3)c2Cl)c(C2CC2)c1` [Compound 103, 4-{[2-chloro-3-(1,1-dioxo-1)^6-thiomorpholine-4-carbonyl)phenyl]amino}-3-cyclopropyl-N-[(2E)-imidazolidin-2-ylidene]benzamide], the EC50 is 19.4 nM.

`O=C(N=C1NCCN1)c1ccc(Nc2cccc(C(=O)NC3(C(F)(F)F)CC3)c2)c(C2CC2)c1` [Compound 53, 3-cyclopropyl-N-[(2Z)-imidazolidin-2-ylidene]-4-[(3-{[1-(trifluoromethyl)cyclopropyl]carbamoyl}phenyl)amino]benzamide]: the EC50 was 153 nM.

Consider `O=C(N=C1NCCN1)c1ccc(Nc2cccc(OCC3COCCO3)c2)c(C2CCCC2)c1` (centres unmarked) [Compound 51, 3-cyclopentyl-4-({3-[(1,4-dioxan-2-yl)methoxy]phenyl}amino)-N-[(2E)-imidazolidin-2-ylidene]benzamide], for which the EC50 worked out at 140 nM.

For `O=C(N=C1NCCN1)c1ccc(Nc2cccc(C(=O)NC3CCOC3)c2Cl)c(C2CC2)c1` (centres unmarked) [Compound 28, 4-({2-chloro-3-[(oxolan-3-yl)carbamoyl]phenyl}amino)-3-cyclopropyl-N-[(2Z)-imidazolidin-2-ylidene]benzamide], the EC50 is 42.1 nM.

For the compound `O=C(N=C1NCCN1)c1ccc(Nc2cccc(C(=O)NC3(C(F)(F)F)CC3)c2Cl)c(C2CC2)c1` [Compound 114, 4-[(2-chloro-3-{[1-(trifluoromethyl)cyclopropyl]carbamoyl}phenyl)amino]-3-cyclopropyl-N-[imidazolidin-2-ylidene]benzamide], the EC50 came out at 32.6 nM.

With `CC1(NC(=O)c2cccc(Nc3ccc(C(=O)N=C4NCCN4)cc3S(C)(=O)=O)c2Cl)CC1` [Compound 102, 2-chloro-3-[(4-{[(2Z)-imidazolidin-2-ylidene]carbamoyl}-2-methanesulfonylphenyl)amino]-N-(1-methylcyclopropyl)benzamide], the EC50 was 819 nM.

`CN1CCN/C1=N\C(=O)c1ccc(Nc2cccc(C(=O)NC3(C)CC3)c2)c(C(C)(C)C)c1` [Compound 24, 3-tert-butyl-4-({3-[(1-methylcyclopropyl)carbamoyl]phenyl}amino)-N-[(2E)-1-methylimidazolidin-2-ylidene]benzamide]: the EC50 was found to be 31.7 nM.

With `CC1(NC(=O)c2cccc(Nc3ncc(C(=O)N=C4NCCN4)cc3C3CC3)c2Cl)CC1` [Compound 146, 6-({2-chloro-3-[(1-methylcyclopropyl)carbamoyl]phenyl}amino)-5-cyclopropyl-N-[imidazolidin-2-ylidene]pyridine-3-carboxamide], the EC50 was determined as 253 nM.

With `O=C(N=C1NCCN1)c1ccc(Nc2cccc(C(=O)NCC3CCCO3)c2Cl)c(C2CC2)c1` (centres unmarked) [Compound 109, 4-[(2-chloro-3-{[(oxolan-2-yl)methyl]carbamoyl}phenyl)amino]-3-cyclopropyl-N-[(2E)-imidazolidin-2-ylidene]benzamide], the EC50 was 45 nM.
